Laboratory results published in US20050065203A1, “Method of reducing type 2 diabetes in high risk patients” (priority 2001, published 2005).
Like-named read-outs stand apart in the source and are kept apart here.

Experiments:
[1] = tested on: patients without known diabetes but with vascular disease; details: study participants without known diabetes at randomization (N Engl J. Med. 2000); cited from earlier work
[2] = patients with diabetes in HOPE, serial annual recordings, first 2 years; cited from earlier work
[3] = SECURE study, P=0.03, cited from earlier work
[4] = tested on: patients without known diabetes but with vascular disease; assay: Heart Outcomes Prevention Evaluation (HOPE) trial: new diagnosis of diabetes; assay type: in vivo, human; details: for New Diabetes With Glycated Hemoglobulin ≧ 110%, ULN, RR (85%) CI) / New Diabetes With Oral Agents or Insulin, RR (85%) CI) / New Diabetes With Oral Agents or insulin and Glycated Hemoglobulin ≧ 110%, ULN, RR (85%) CI) / New Diabetes, RR (85%) CI): vs placebo
Procedure: The design of the Heart Outcomes Prevention Evaluation (HOPE) trial has been described in detail in previous publications. Briefly, individuals who were 55 years or older with no evidence of left ventricular dysfunction or heart failure and who had evidence of vascular disease or who had diabetes and one other risk factor were eligible as long as they had no indication or contraindication to receiving an ACE-inhibitor. The study was conducted in 26 hospitals in 19 countries from 1994 to 1999. All patients provided written informed consent.
Of 10576 eligible patients who participated in a run-in period during which they received 2.5 mg ramipril once daily for 1 week followed by matching placebo for 10 to 14 days, 1035 (9.8%) were excluded from randomization (3.2% for side effects, 3.7% for lack of consent). […] In the following it is primarily foccuessed on the latter group of patients. Of these patients, 5720 were randomized to receive up to 10 mg of ramipril once per day or equivalent placebo. One hundred sixty-seven patients who were randomized to receive a low dose (2.5 mg/day) of ramipril as part of the Study to Evaluate Carotid Ultrasound changes with Ramipril and Vitamin E (SECURE). Substudy results are not included. All randomized patients were also randomized to receive 400 IU of Vitamin E or placebo.
Follow-up visits occurred at 1 month and 6 months after randomization and then every 6 months (mean follow-up of 4.5 years). At each visit, it was documented whether the diagnosis of diabetes had been made since the last visit.
The primary outcome of this analysis is a new diagnosis of diabetes recorded on the basis of self-report. […] Hemoglobin A1c (HbA1c) levels and medications used among those diagnosed as having diabetes were also recorded. The HbA1c levels; were determined locally. Values higher than 110% of the upper limit of normal for each laboratory were considered to be biochemical confirmation of diabetes.
Survival curves utilizing the Kaplan Meier and log-rank procedures were used to describe and compare the results in the 2 treatment groups. Because of the factorial design, all analyses were stratified for randomization to vitamin E or placebo. Subgroup analyses were conducted using tests of interaction in the Cox regression model.
Design, Setting and Participants: The randomized, controlled Heart Outcomes Prevention Evaluation trial of 5720 patients older than 55 years without known diabetes but with vascular disease who were followed up for a mean of 4.5 years. The study included 267 hospitals in 19 countries and was conducted between 1994 and 1999.
Intervention: Patients were randomly assigned to receive ramipril, up to 10 mg/d (n=2837), or placebo (n=2883).
Main Outcome Measure: Diagnosis of diabetes determined from self-report at follow-up visits every 6 months, compared between the 2 groups.

[5] = tested on: people at high risk, with and without a diagnosis of diabetes; details: cited from earlier work
[6] = ramipril up to 10 mg/d (n=2837), mean follow-up 4.5 years
[7] = subgroup Body mass index >27.7 Kg/m^2
[8] = subgroup Without microalbuminuria

CCOC(=O)[C@H](CCc1ccccc1)N[C@@H](C)C(=O)N1[C@H](C(=O)O)C[C@@H]2CCC[C@@H]21 [ramipril]
development of diabetes [1]: reduced
reduction in HbA10 levels, absolute difference [2]: 0.2%
increase in fasting glucose ([3]; placebo 0.41 mmols): 0.25 mmols
increase in fasting glucose ([3]; placebo 15.8 mg/dL): 9.6 mg/dL
New Diabetes With Glycated Hemoglobulin ≧ 110%, ULN, No. of patients ([4]; No new MA or ON): 42
New Diabetes With Glycated Hemoglobulin ≧ 110%, ULN, proportion of patients (in parentheses) ([4]; No new MA or ON): 1.7
New Diabetes With Oral Agents or Insulin, No. of patients ([4]; No new MA or ON): 45
New Diabetes With Oral Agents or Insulin, proportion of patients (in parentheses) ([4]; No new MA or ON): 1.8
New Diabetes With Oral Agents or insulin and Glycated Hemoglobulin ≧ 110%, ULN, No. of patients ([4]; No new MA or ON): 30
New Diabetes With Oral Agents or insulin and Glycated Hemoglobulin ≧ 110%, ULN, proportion of patients (in parentheses) ([4]; No new MA or ON): 1.2
New Diabetes, No. of patients ([4]; No new MA or ON): 82
New Diabetes, proportion of patients (in parentheses) ([4]; No new MA or ON): 3.3
New Diabetes With Glycated Hemoglobulin ≧ 110%, ULN, RR (85%) CI) ([4]; No new MA or ON): 0.66 (0.48-0.98)
New Diabetes With Oral Agents or Insulin, RR (85%) CI) ([4]; No new MA or ON): 0.56 (0.39-0.81)
New Diabetes With Oral Agents or insulin and Glycated Hemoglobulin ≧ 110%, ULN, RR (85%) CI) ([4]; No new MA or ON): 0.60 (0.38-0.94)
New Diabetes, RR (85%) CI) ([4]; No new MA or ON): 0.67 (0.51-0.89)
New Diabetes With Glycated Hemoglobulin ≧ 110%, ULN, No. of patients ([4]; No primary event): 45
New Diabetes With Glycated Hemoglobulin ≧ 110%, ULN, proportion of patients (in parentheses) ([4]; No primary event): 1.8
New Diabetes With Oral Agents or Insulin, No. of patients ([4]; No primary event): 54
New Diabetes With Oral Agents or Insulin, proportion of patients (in parentheses) ([4]; No primary event): 2.2
New Diabetes With Oral Agents or insulin and Glycated Hemoglobulin ≧ 110%, ULN, No. of patients ([4]; No primary event): 32
New Diabetes With Oral Agents or insulin and Glycated Hemoglobulin ≧ 110%, ULN, proportion of patients (in parentheses) ([4]; No primary event): 1.3
New Diabetes, No. of patients ([4]; No primary event): 93
New Diabetes, proportion of patients (in parentheses) ([4]; No primary event): 3.8
New Diabetes With Oral Agents or Insulin, RR (85%) CI) ([4]; No primary event): 0.58 (0.42-0.82)
New Diabetes With Oral Agents or insulin and Glycated Hemoglobulin ≧ 110%, ULN, RR (85%) CI) ([4]; No primary event): 0.51 (0.33-0.78)
New Diabetes, RR (85%) CI) ([4]; No primary event): 0.69 (0.53-0.91)
New Diabetes With Glycated Hemoglobulin ≧ 110%, ULN, No. of patients ([4]; With new MA or ON): 10
New Diabetes With Glycated Hemoglobulin ≧ 110%, ULN, proportion of patients (in parentheses) ([4]; With new MA or ON): 2.8
New Diabetes With Oral Agents or insulin and Glycated Hemoglobulin ≧ 110%, ULN, No. of patients ([4]; With new MA or ON): 6
New Diabetes With Oral Agents or insulin and Glycated Hemoglobulin ≧ 110%, ULN, proportion of patients (in parentheses) ([4]; With new MA or ON): 1.7
New Diabetes, No. of patients ([4]; With new MA or ON): 20
New Diabetes, proportion of patients (in parentheses) ([4]; With new MA or ON): 5.8
New Diabetes With Glycated Hemoglobulin ≧ 110%, ULN, RR (85%) CI) ([4]; With new MA or ON): 0.47 (0.23-0.98)
New Diabetes With Oral Agents or insulin and Glycated Hemoglobulin ≧ 110%, ULN, RR (85%) CI) ([4]; With new MA or ON): 0.32 (0.13-0.79)
New Diabetes, RR (85%) CI) ([4]; With new MA or ON): 0.65 (0.38-1.12)
New Diabetes With Oral Agents or Insulin, No. of patients ([4]; With new NA or ON): 14
New Diabetes With Oral Agents or Insulin, proportion of patients (in parentheses) ([4]; With new NA or ON): 3.9
New Diabetes With Oral Agents or Insulin, RR (85%) CI) ([4]; With new NA or ON): 0.61 (0.32-1.16)
New Diabetes With Glycated Hemoglobulin ≧ 110%, ULN, No. of patients ([4]; With primary event): 7
New Diabetes With Glycated Hemoglobulin ≧ 110%, ULN, proportion of patients (in parentheses) ([4]; With primary event): 1.9
New Diabetes With Oral Agents or Insulin, No. of patients ([4]; With primary event): 5
New Diabetes With Oral Agents or Insulin, proportion of patients (in parentheses) ([4]; With primary event): 1.3
New Diabetes With Oral Agents or insulin and Glycated Hemoglobulin ≧ 110%, ULN, No. of patients ([4]; With primary event): 4
New Diabetes With Oral Agents or insulin and Glycated Hemoglobulin ≧ 110%, ULN, proportion of patients (in parentheses) ([4]; With primary event): 1.1
New Diabetes, No. of patients ([4]; With primary event): 9
New Diabetes, proportion of patients (in parentheses) ([4]; With primary event): 2.4
New Diabetes With Glycated Hemoglobulin ≧ 110%, ULN, RR (85%) CI) ([4]; With primary event): 0.59 (0.24-1.43)
New Diabetes With Oral Agents or Insulin, RR (85%) CI) ([4]; With primary event): 0.42 (0.15-1.14)
New Diabetes With Oral Agents or insulin and Glycated Hemoglobulin ≧ 110%, ULN, RR (85%) CI) ([4]; With primary event): 0.54 (0.17-1.72)
New Diabetes, RR (85%) CI) ([4]; With primary event): 0.48 (0.21-0.98)
patients diagnosed to have diabetes and glycated hemoglobin of 110% or more above upper limit of normal, % ([4]; ramipril group): 1.8%
patients with new diabetes meeting all criteria, % ([4]; ramipril group): 1.3%
patients with new diabetes receiving an oral glucose lowering agent or insulin, % ([4]; ramipril group): 2.1%
individuals who reported a new diagnosis of diabetes, % [4, 6]: 3.6%
individuals who reported a new diagnosis of diabetes, No. [4, 6]: 102 and One hundred and two
relative risk of diabetes diagnosis with glycated hemoglobin of 110% or more of ULN ([4]; ramipril vs placebo): 0.60
relative risk of new diabetes meeting all criteria ([4]; ramipril vs placebo): 0.51
relative risk of new diabetes with oral glucose lowering agent or insulin ([4]; ramipril vs placebo): 0.56
relative risk of new diagnosis of diabetes ([4]; ramipril vs placebo): 0.66
No. With Diabetes ([4]; subgroup): 39
(%) With Diabetes [4, 7]: (5.8) %
No. With Diabetes [4, 7]: 63
(%) With Diabetes ([4]; subgroup Body mass index ≦7.7 Kg/m^2): (2.2) %
(%) With Diabetes ([4]; subgroup Not taking diuretics): (3.4) %
No. With Diabetes ([4]; subgroup Not taking diuretics): 84
(%) With Diabetes ([4]; subgroup Not taking β-blocker): (3.3) %
No. With Diabetes ([4]; subgroup Not taking β-blocker): 50
(%) With Diabetes ([4]; subgroup Taking diuretics): (5.0) %
No. With Diabetes ([4]; subgroup Taking diuretics): 18
(%) With Diabetes ([4]; subgroup Taking β-blocker): (4.0) %
No. With Diabetes ([4]; subgroup Taking β-blocker): 52
(%) With Diabetes ([4]; subgroup Waist-hip ratio >0.93): (4.4) %
No. With Diabetes ([4]; subgroup Waist-hip ratio >0.93): 63
(%) With Diabetes ([4]; subgroup Waist-hip ratio ≦0.93): (2.8) %
No. With Diabetes ([4]; subgroup Waist-hip ratio ≦0.93): 39
(%) With Diabetes ([4]; subgroup With hypertension): (4.2) %
No. With Diabetes ([4]; subgroup With hypertension): 49
(%) With Diabetes ([4]; subgroup With microalbuminuria): (4.2) %
No. With Diabetes ([4]; subgroup With microalbuminuria): 17
(%) With Diabetes ([4]; subgroup Without hypertension): (3.2) %
No. With Diabetes ([4]; subgroup Without hypertension): 53
(%) With Diabetes [4, 8]: (3.5) %
No. With Diabetes [4, 8]: 85
relative risk for diabetes ([4]; subgroup who never took diuretics or β-blockers during the study, ramipril vs placebo): 0.62
myocardial infarction, strokes, death, and the development of diabetic nephropathy [5]: reduces

Vitamin E
effect on diabetes ([4]; 400 IU Vitamin E vs placebo): did not differ
